# In US20240083888A1, “SMALL MOLECULE INHIBITOR FOR CATHEPSIN C AND MEDICINAL USE THEREOF” (REISTONE BIOPHARMA COMPANY LIMITED, priority 2020, published 2024):
# Where a name gives a salt, the structure may show the parent alone. Read-outs that look alike come from different tables or passages of the source.
# Tests used:
# [1] = target: rhCatC (Homo sapiens (Human), UniProt P53634); assay: In vitro enzyme activity experiment of rhCatC (AMC fluorescence assay); type: biochemical; details: rhCatC enzyme, substrate H-Gly-Arg-AMC; read-out: Biological activity IC50
# Sequence of rhCatC (P53634 25-134): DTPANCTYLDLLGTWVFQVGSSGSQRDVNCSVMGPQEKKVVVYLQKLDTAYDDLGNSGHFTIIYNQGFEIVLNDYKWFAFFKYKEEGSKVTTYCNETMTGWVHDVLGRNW
# Sequence of rhCatC (P53634 231-394): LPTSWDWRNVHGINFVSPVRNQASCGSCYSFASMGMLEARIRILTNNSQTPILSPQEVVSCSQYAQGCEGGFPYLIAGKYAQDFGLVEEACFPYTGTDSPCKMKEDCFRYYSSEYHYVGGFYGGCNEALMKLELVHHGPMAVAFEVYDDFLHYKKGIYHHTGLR
# Sequence of rhCatC (P53634 395-463): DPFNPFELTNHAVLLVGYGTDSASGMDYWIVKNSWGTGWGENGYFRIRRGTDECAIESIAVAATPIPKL
# Description: The in vitro inhibitory effect of compounds and positive control on rhCatC enzyme activity was evaluated by AMC fluorescence assay. rhCatC can catalyze the reaction of substrate peptide H-Gly-Arg-AMC, and release AMC to generate fluorescence. […] The compound was diluted with DMSO to a 384-well echo plate at a concentration of 100× of the highest concentration at the beginning of the experiment. 0.2 μL of the diluted compound was pipetted to a black-bottomed 384-well reaction plate for later use. The negative control well was DMSO. • 2) Activation of rhCatC: RhCatC and rhCatL were added to the activation buffer to obtain a final concentration of rhCatC of 100 μg/mL and a final concentration of rhCatL of 20 μg/mL, and incubated at room temperature for 1 hour. • 3) Enzyme activity reaction: Activated rhCatC was diluted to 0.4 μg/mL with the reaction buffer. The solution was added to the black-bottom 384-well reaction plate ([…]). 10 μL of the buffer was added for the vehicle control group. The plate containing compounds in its wells was incubated at room temperature for 30 minutes.
# The RLU data was read, the inhibition rate was calculated, and the IC50 value was calculated according to the fitting curve of concentration and inhibition rate.
# [2] = target: CatC (Homo sapiens (Human), UniProt P53634); assay: In vitro CatC cell activity experiment in U937 cell line; type: cell-based
# Description: The U937 cell line was resuscitated and passed for about two generations, and the cell line with good growth status was selected. The cell suspension was transferred into a centrifuge tube, and centrifuged at 800 to 1000 rpm for 3 to 5 minutes. The supernatant was discarded. An appropriate volume of culture medium was added to the centrifuge tube, which was gently pipetted to resuspend the cells evenly. The cells were counted using a Vi-Cell XR cell counter. The cell suspension was adjusted to an appropriate concentration. The cell suspension was added into a 384-well plate ([…]). The compound was formulated into a 10 mM solution with DMSO. The compound was diluted with DMSO to obtain a 1 mM solution, and a semi-logarithmi dilution was carried out by HPD300 with DMSO to obtain 10 concentrations. Gly-Phe-AFC was formulated into a 35 mM solution with DMSO and divided. […] After adding the compounds and incubating for 1 hour in an incubator, substrate-AFC was added (12.5 μL was added to the plate). The plate was incubated for 30 minutes and read. […] XLFit was used to draw the drug efficacy inhibition rate curve and calculate the IC50 value. 4-parameter model [fit=(A+((B−A)/(1+((C/x)^D))))] was used.
# [3] = U937 cells, CatC cell activity, read-out: Biological activity IC50
SMILES,IC50 [1] [nM],"IC50 [2, 3] [nM]",IC50 [2] [nM]
"N#CC(Cc1ccc2c(c1)CCc1ccccc1-2)NC(=O)C1(N)CCOCC1 (stereo not shown) [Compound 7, 4-Amino-N-(1-cyano-2-(9,10-dihydrophenanthren-2-yl)ethyl)tetrahydro-2H-pyran-4-carboxamide]",6.8,10.2,–
"N#C[C@H](Cc1ccc2c(c1)CCc1ccccc1-2)NC(=O)[C@@H]1CNCCCO1 [Compound 8, (S)—N—((S)-1-Cyano-2-(9,10-dihydrophenanthren-2-yl)ethyl)-1,4-oxazepane-2-carboxamide]",60,220,–
"N#CC(Cc1cc2c(cc1F)-c1ccc(F)cc1CO2)NC(=O)[C@@H]1CNCCCO1 (stereo partly drawn) [Compound 12, (2S)—N-(1-Cyano-2-(2,8-difluoro-6H-benzo[c]chromen-3-yl)ethyl)-1,4-oxazepane-2-carboxamide]",16,–,23
"N#Cc1ccc2c(c1)COc1cc(CC(C#N)NC(=O)[C@@H]3CNCCCO3)ccc1-2 (stereo partly drawn) [Compound 13, (2S)—N-(1-Cyano-2-(8-cyano-6H-benzo[c]chromen-3-yl)ethyl)-1,4-oxazepane-2-carboxamide]",37,–,87.6
"N#C[C@H](Cc1ccc2c(c1)OCc1cc(F)c(F)cc1-2)NC(=O)[C@@H]1CNCCCO1 [Compound 16, (S)—N—((S)-1-Cyano-2-(8,9-difluoro-6H-benzo[c]chromen-3-yl)ethyl)-1,4-oxazepane-2-carboxamide]",91,–,186
"N#C[C@H](Cc1ccc2c(c1)OCc1cc(F)c(F)cc1-2)NC(=O)C1(N)CCOCC1 [Compound 17, (S)-4-Amino-N-(1-cyano-2-(8,9-difluoro-6H-benzo[c]chromen-3-yl)ethyl)tetrahydro-2H-pyran-4-carboxamide]",5.7,–,6.2
"N#Cc1cc2c(cn1)-c1cc(F)c(CC(C#N)NC(=O)[C@@H]3CNCCCO3)cc1OC2 (stereo partly drawn) [Compound 18, (2S)—N-(1-Cyano-2-(3-cyano-9-fluoro-5H-chromeno[4,3-c]pyridin-8-yl)ethyl)-1,4-oxazepane-2-carboxamide]",49,–,29.5
"N#C[C@H](Cc1cc2c(cc1F)-c1ccc(F)cc1CO2)NC(=O)[C@@H]1CNCCCO1 [Compound 20, (S)—N—((S)-1-Cyano-2-(2,8-difluoro-6H-benzo[c]chromen-3-yl)ethyl)-1,4-oxazepane-2-carboxamide]",11,–,7.8
"N#Cc1ccc2c(c1)COc1cc(C[C@@H](C#N)NC(=O)[C@@H]3CNCCCO3)c(Cl)cc1-2 [Compound 21, (S)—N—((S)-2-(2-Chloro-8-cyano-6H-benzo[c]chromen-3-yl)-1-cyanoethyl)-1,4-oxazepane-2-carboxamide]",–,–,24.6
"N#CC(Cc1ccc2c(c1)OCc1cc(F)ccc1-2)NC(=O)C1(N)CCOCC1 (stereo not shown) [Compound 22, 4-Amino-N-(1-cyano-2-(8-fluoro-6H-benzo[c]chromen-3-yl)ethyl)tetrahydro-2H-pyran-4-carboxamide formate]",3.2,–,5.5
"N#CC(Cc1cc2c(cc1F)-c1ccc(F)cc1CO2)NC(=O)C1(N)CCOCC1 (stereo not shown) [Compound 24, 4-Amino-N-(1-cyano-2-(2,8-difluoro-6H-benzo[c]chromen-3-yl)ethyl)tetrahydro-2H-pyran-4-carboxamide]",2.7,–,4.3
"N#Cc1ccc2c(c1)COc1cc(CC(C#N)NC(=O)C3(N)CCOCC3)ccc1-2 (stereo not shown) [Compound 25, 4-Amino-N-(1-cyano-2-(8-cyano-6H-benzo[c]chromen-3-yl)ethyl)tetrahydro-2H-pyran-4-carboxamide]",3.1,–,5.52
"N#Cc1ccc2c(c1)COc1cc(C[C@@H](C#N)NC(=O)[C@@H]3C[C@@H]4CCC[C@@H]4N3)c(F)cc1-2 [Compound 26, (2S,3aS,6aS)—N—((S)-1-Cyano-2-(8-cyano-2-fluoro-6H-benzo[c]chromen-3-yl)ethyl)octahydrocyclopenta[b]pyrrole-2-carboxamide]",8.9,6.7,–
"N#CC(Cc1ccc2c(c1)OCc1ccc(C3COC3)cc1-2)NC(=O)[C@@H]1CNCCCO1 (stereo partly drawn) [Compound 28, (2S)—N-(1-Cyano-2-(9-(oxetan-3-yl)-6H-benzo[c]chromen-3-yl)ethyl)-1,4-oxazepane-2-carboxamide]",–,–,50.1
"CS(=O)(=O)c1ccc2c(c1)COc1cc(CC(C#N)NC(=O)[C@@H]3CNCCCO3)c(F)cc1-2 (stereo partly drawn) [Compound 29, (2S)—N-(1-Cyano-2-(2-fluoro-8-(methylsulfonyl)-6H-benzo[c]chromen-3-yl)ethyl)-1,4-oxazepane-2-carboxamide]",17.1,–,36.8
"CS(=O)(=O)c1ccc2c(c1)COc1cc(C[C@@H](C#N)NC(=O)[C@@H]3CNCCCO3)c(F)cc1-2 [Compound 30, (S)—N—((S)-1-Cyano-2-(2-fluoro-8-(methylsulfonyl)-6H-benzo[c]chromen-3-yl)ethyl)-1,4-oxazepane-2-carboxamide]",10,–,9.6
"N#Cc1ccc2c(c1)-c1cc(F)c(CC(C#N)NC(=O)[C@@H]3CNCCCO3)cc1OC2 (stereo partly drawn) [Compound 31, (2S)—N-(1-Cyano-2-(9-cyano-2-fluoro-6H-benzo[c]chromen-3-yl)ethyl)-1,4-oxazepane-2-carboxamide]",–,–,38.4
"N#CC(Cc1cc2c(cc1F)-c1ccc(S(=O)(=O)N3CCC3)cc1CO2)NC(=O)[C@@H]1CNCCCO1 (stereo partly drawn) [Compound 35, (2S)—N-(2-(8-(Azetidin-1-ylsulfonyl)-2-fluoro-6H-benzo[c]chromen-3-yl)-1-cyanoethyl)-1,4-oxazepane-2-carboxamide]",15,37.9,–
"N#CC(Cc1ccc2c(c1)OCCc1cc(F)ccc1-2)NC(=O)C1(N)CCOCC1 (stereo not shown) [Compound 36, 4-Amino-N-(1-cyano-2-(9-fluoro-6,7-dihydrodibenzo[b,d]oxepin-3-yl)ethyl)tetrahydro-2H-pyran-4-carboxamide]",7.1,23.7,–
"N#CC(Cc1ccc2c(c1)COCc1cc(F)ccc1-2)NC(=O)C1(N)CCOCC1 (stereo not shown) [Compound 37, 4-Amino-N-(1-cyano-2-(9-fluoro-5,7-dihydrodibenzo[c,e]oxepin-3-yl)ethyl)tetrahydro-2H-pyran-4-carboxamide]",14,8.6,–
"CN1Cc2cc(F)ccc2-c2ccc(C[C@@H](C#N)NC(=O)C3(N)CCOCC3)cc2C1=O [Compound 40, (S)-4-Amino-N-(1-cyano-2-(9-fluoro-6-methyl-5-oxo-6,7-dihydro-5H-dibenzo[c,e]azepin-3-yl)ethyl)tetrahydro-2H-pyran-4-carboxamide]",3.7,10.3,–
"CN1Cc2cc(C#N)ccc2-c2cc(F)c(C[C@@H](C#N)NC(=O)[C@@H]3CNCCCO3)cc2C1=O [Compound 41, (S)—N—((S)-1-Cyano-2-(9-cyano-2-fluoro-6-methyl-5-oxo-6,7-dihydro-5H-dibenzo[c,e]azepin-3-yl)ethyl)-1,4-oxazepane-2-carboxamide]",30.5,117,–
"N#C[C@H](Cc1ccc2c(c1)CCN(c1ccc(F)cc1)C2)NC(=O)C1(N)CCOCC1 [Compound 57, (S)-4-Amino-N-(1-cyano-2-(2-(4-fluorophenyl)-1,2,3,4-tetrahydroisoquinolin-6-yl)ethyl)tetrahydro-2H-pyran-4-carboxamide]",48,–,–
"N#C[C@H](Cc1ccc2c(c1)CC(=O)N(c1ccc(F)cc1)C2)NC(=O)C1(N)CCCCC1 [Compound 58, (S)-1-Amino-N-(1-cyano-2-(2-(4-fluorophenyl)-3-oxo-1,2,3,4-tetrahydroisoquinolin-6-yl)ethyl)cyclohexane-1-carboxamide]",–,99.3,–
